Data as given in paper PMC8845285, “Serotoninergic receptor ligands improve Tamoxifen effectiveness on breast cancer cells” (BMC Cancer, 2022).

Key:
MCF7 cells = assay: MCF7 responsiveness to Tamoxifen in presence of SER, sulforhodamine B assay; assay type: cell-based, human; conditions: Tamoxifen 5 μM, E2 100 nM, 72 h, estrogen-starved MCF7
Method: MCF7 (ER^+, PR^+, HER2^−), SKBR3 (ER^−, PR^+, HER2^+) and MDA-MB231 (ER^−, PR^−, HER2^−) human BC cells and MCF10A non-cancer breast epithelial cells were available in our laboratory. MCF7, SKBR3 and MDA-MB231 cells were cultured in DMEM, supplemented with 10% FBS, 2 mM glutamine, 100 units/ml penicillin and 100 units/ml streptomycin. MCF10A cells were cultured in MEBM, supplemented with 0.4% BPE, 0.1% hEGF, 0.1%, Insulin, 0.1% Hydrocortisone and 0.1% GA-1000. […] Treatment with SER were carried out in culture conditions. Treatment with Tamoxifen and/or SER were carried out upon 48 h estrogen starvation in phenol-red free medium supplemented with 10% Charcoal Stripped (C/S) FBS, 2 mM glutamine, 100 units/ml penicillin and 100 units/ml streptomycin.
Cells were fixed with 50% trichloroacetic acid for at least 2 h at 4 °C, washed with distilled and de-ionized water, air-dryed and stained 30 min with 0.4% sulforhodamine B in 1% acetic acid. Unbound dye was removed and 10 mM tris-HCl solution (pH 7.5) was added to dissolve the protein-bound dye. Cell survival was assessed by optical density determination at 510 nm using a microplate reader.
After 72 h, cell cycle was assessed by Propidium Iodide staining (see Methods). […] As positive control, the cells were treated with E2 and SER alone (without Tamoxifen, dotted line). After 72 h, cell viability was assessed by sulforhodamine B assay (see Methods). […] After 72 h, mRNA levels of CTGF were determined by qPCR (see Methods and Table 1). Data were normalized on Ribosomal Protein S23 (Rps23) gene as internal standard and were reported as CTGF mRNA levels in MCF7 treated with SER relative to those in untreated cells (dotted line). a-c Data represent the mean ± SD of at least three independent triplicate experiments. * denotes statistically significant values compared with (a) percentage of untreated cells in G0/G1, S and G2/M cell cycle phase (*pval<0.05,**pval<0.01), (b) positive control (*adjp<0.05,**adjp <0.01,***adjp<0.001), (c) untreated cells (pval<0.05); # denotes statistically significant values compared with cells treated with Tamoxifen in absence of SER (#pval<0.05)
Fig. 7 Effect of low doses of SER79 and SER68 on MCF7 and MCF10A cells. a Estrogen-starved MCF7 cells (48 h) were treated with Tamoxifen (5 μM) in presence of E2 (100nM) and SER79 (5 μM) or SER68 (20 μM, 5 μM). As positive control, the cells were treated with E2 and SER alone (without Tamoxifen, dotted line). After 72 h, cell viability was assessed by sulforhodamine B assay (see Methods). […] After 72 h, mRNA levels of CTGF were determined by qPCR (see Methods and Table 1). Data were normalized on Ribosomal Protein S23 (Rps23) gene as internal standard. Bars represent CTGF mRNA levels in MCF7 treated with SER relative to those in untreated cells (dotted line). c MCF10A non-cancer breast epithelial cells were treated with SER79 (5 μM) or SER68 (20 μM). After 72 h, cell viability was assessed by sulforhodamine B assay (see Methods).

CTGF = CTGF mRNA levels in Tamoxifen-cultured MCF7 cells, qPCR; assay type: cell-based, human; conditions: Tamoxifen-cultured MCF7, doses able to restore Tamoxifen responsiveness, 72 h
Method: Total RNA was isolated from cells, quantified (NanoDrop spectrophotometer, Life Technologies, Carlsbad, CA, USA) and reverse transcribed according to the manufacturer’s instructions. Semiquantitative PCR and qPCR assays were performed according to manufacturer’s instructions for Bio-Rad T100 thermal cycler and CFX Connect Real Time system (Biorad, Hercules, CA, USA), respectively. Relative gene expression quantification was measured by 2^−ΔΔCt method normalizing for the reference sample using Rps23 (Ribosomal Protein S23) as housekeeping gene.
Fig. 8 Effect of SER79 and SER68 on Tamoxifen-cultured MCF7 cells. MCF7 cells were cultured in presence of Tamoxifen (1 μM) for 10 days. Estrogen-starved MCF7 and Tamoxifen-cultured MCF7 cells (48 h) were (a-c) treated with SER79 (20 μM, 5 μM) or SER68 (40 μ, 20 μM), (b) treated with Tamoxifen (5 μM) in presence of SER79 (20 μM, 5 μM) or SER68 (40 μM, 20 μM). All treatments were carried out in presence of E2 (100 nM) for 72 h. As positive control, the cells were treated with (a-c) E2 alone or (b) E2 in absence or in presence of SER (as indicated, dotted line). a,b Cell viability was assessed by sulforhodamine B assay (see Methods). The results were reported as percentage of viable cells compared to positive control, considered as maximum viability (100%). c mRNA levels of CTGF were determined by qPCR (see Methods and Table 1). […]

Q: What does the source list for O=C1C2C3C=CC(C3)C2C(=O)N1OCCN1CCN(c2ccc(Cl)c(Cl)c2)CC1 (stereo not shown) [SER68]?
A: further decrease of cell viability compared with Tamoxifen alone (MCF7 cells; SER 5 μM): No further effect; further decrease of cell viability compared with Tamoxifen alone (MCF7 cells; SER 20 μM): ≈ 20%; further decrease of cell viability compared with Tamoxifen alone (MCF7 cells; SER at IC50 dose): ≈ 30%; CTGF levels after SER compared with those in Tamoxifen-responsive MCF7 cells (CTGF): significantly lower

Q: How did the “further decrease of cell viability compared with Tamoxifen alone” value (MCF7 cells; SER 5 μM) turn out when N#CN=C(NCCCN1CCN(C(c2ccc(F)cc2)c2ccc(F)cc2)CC1)c1ccccn1 [SER79] was run?
A: Its value is “≈ 15%”.

Q: What about the “further decrease of cell viability compared with Tamoxifen alone” value (MCF7 cells; SER at IC50 dose) of the same compound?
A: Its value is “≈ 15%”.

Q: And the “CTGF levels after SER compared with those in Tamoxifen-responsive MCF7 cells” value (CTGF)?
A: The value was “similar”.
